The molecules below were run against T1, human MGL from HeLa cells (Homo sapiens, UniProt Q99685) (assay: In vitro MGL activity assay: [glycerol-1,3-3H]-oleyl glycerol cleavage by MGL from HeLa cells). Settings: 300 nM [Glycerol-1,3-3H]-oleyl glycerol, one hour.
T1 construct: combining endogenously expressed MGL from HeLa cells with test compounds; endogenous in cells; host or cells: HeLa cells / cell homogenates
T1 sequence (Q99685 1-303): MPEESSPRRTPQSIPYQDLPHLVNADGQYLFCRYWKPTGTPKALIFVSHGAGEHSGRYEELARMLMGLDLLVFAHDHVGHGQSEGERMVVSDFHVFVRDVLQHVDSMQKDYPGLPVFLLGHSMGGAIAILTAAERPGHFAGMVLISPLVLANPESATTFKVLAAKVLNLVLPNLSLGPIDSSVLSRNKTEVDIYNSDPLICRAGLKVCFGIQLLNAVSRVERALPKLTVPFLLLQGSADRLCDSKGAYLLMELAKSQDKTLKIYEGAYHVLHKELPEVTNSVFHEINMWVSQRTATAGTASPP
Type: biochemical
From the text: MGL is the predominant hydrolase in HeLa cells/cell homogenates.

Row | IC50 [nM] | Compound
1 | 276 | C[C@H]1c2nn(C)c(-c3cc(F)c(F)c(F)c3)c2CCN1C(=O)c1ccc2nccn2n1 [Example 452, [(7S)-2,7-Dimethyl-3-(3,4,5-trifluorophenyl)-5,7-dihydro-4H-pyrazolo[3,4-c]pyridin-6-yl]-imidazo[1,2-b]pyridazin-6-yl-methanone]
2 | 165 | Cc1cn2nc(C(=O)N3CCc4c(nn(C)c4-c4cc(F)c(F)c(F)c4)[C@@H]3C)ccc2n1 [Example 453, [(7S)-2,7-Dimethyl-3-(3,4,5-trifluorophenyl)-5,7-dihydro-4H-pyrazolo[3,4-c]pyridin-6-yl]-(2-methylimidazo[1,2-b]pyridazin-6-yl)methanone]
3 | 24.9 | C[C@H]1c2nn(C)c(-c3cc(F)c(F)c(F)c3)c2CCN1C(=O)c1cnc2cccnn12 [Example 454, [(7S)-2,7-Dimethyl-3-(3,4,5-trifluorophenyl)-5,7-dihydro-4H-pyrazolo[3,4-c]pyridin-6-yl]-imidazo[1,2-b]pyridazin-3-yl-methanone]
4 | 23.2 | Cc1nc2cccnn2c1C(=O)N1CCc2c(nn(C)c2-c2cc(F)c(F)c(F)c2)[C@@H]1C [Example 455, [(7S)-2,7-Dimethyl-3-(3,4,5-trifluorophenyl)-5,7-dihydro-4H-pyrazolo[3,4-c]pyridin-6-yl]-(2-methylimidazo[1,2-b]pyridazin-3-yl)methanone]
5 | 25.4 | Cc1nc2c(C)ccnn2c1C(=O)N1CCc2c(nn(C)c2-c2cc(F)c(F)c(F)c2)[C@@H]1C [Example 456, (2,8-Dimethylimidazo[1,2-b]pyridazin-3-yl)-[(7S)-2,7-dimethyl-3-(3,4,5-trifluorophenyl)-5,7-dihydro-4H-pyrazolo[3,4-c]pyridin-6-yl]methanone]
6 | 39.4 | Cc1cnn2c(C(=O)N3CCc4c(nn(C)c4-c4cc(F)c(F)c(F)c4)[C@@H]3C)c(C)nc2c1 [Example 457, (2,7-Dimethylimidazo[1,2-b]pyridazin-3-yl)-[(7S)-2,7-dimethyl-3-(3,4,5-trifluorophenyl)-5,7-dihydro-4H-pyrazolo[3,4-c]pyridin-6-yl] methanone]
7 | 163 | Cc1nc2ncccn2c1C(=O)N1CCc2c(nn(C)c2-c2cc(F)c(F)c(F)c2)[C@@H]1C [Example 458, [(7S)-2,7-Dimethyl-3-(3,4,5-trifluorophenyl)-5,7-dihydro-4H-pyrazolo[3,4-c]pyridin-6-yl]-(2-methylimidazo[1,2-a]pyrimidin-3-yl)methanone]
8 | 312 | Cc1nc2c(C)ncc(C)n2c1C(=O)N1CCc2c(nn(C)c2-c2cc(F)c(F)c(F)c2)[C@@H]1C [Example 459, [(7S)-2,7-Dimethyl-3-(3,4,5-trifluorophenyl)-5,7-dihydro-4H-pyrazolo[3,4-c]pyridin-6-yl]-(2,5,8-trimethylimidazo[1,2-a]pyrazin-3-yl)methanone]
9 | 522 | Cc1nc(C(=O)N2CCc3c(nn(C)c3-c3cc(F)c(F)c(F)c3)[C@@H]2C)c2ncccn12 [Example 460, [(7S)-2,7-Dimethyl-3-(3,4,5-trifluorophenyl)-5,7-dihydro-4H-pyrazolo[3,4-c]pyridin-6-yl]-(6-methylimidazo[1,5-a]pyrimidin-8-yl)methanone]
10 | 1010 | Cc1cnc2c(C(=O)N3CCc4c(nn(C)c4-c4cc(F)c(F)c(F)c4)[C@@H]3C)ncn2c1 [Example 461, [(7S)-2,7-Dimethyl-3-(3,4,5-trifluorophenyl)-5,7-dihydro-4H-pyrazolo[3,4-c]pyridin-6-yl]-(3-methylimidazo[1,5-a]pyrimidin-8-yl)methanone]
11 | 35.4 | Cc1nc(C(=O)N2CCc3c(nn(C)c3-c3cc(F)c(F)c(F)c3)[C@@H]2C)c2cnccn12 [Example 462, [(7S)-2,7-Dimethyl-3-(3,4,5-trifluorophenyl)-5,7-dihydro-4H-pyrazolo[3,4-c]pyridin-6-yl]-(3-methylimidazo[1,5-a]pyrazin-1-yl) methanone]
12 | 19.8 | C[C@H]1c2nn(C)c(-c3cc(F)c(F)c(F)c3)c2CCN1C(=O)c1nc(C(F)(F)F)n2ccncc12 [Example 463, [(7S)-2,7-Dimethyl-3-(3,4,5-trifluorophenyl)-5,7-dihydro-4H-pyrazolo[3,4-c]pyridin-6-yl]-[3-(trifluoromethyl)imidazo[1,5-a]pyrazin-1-yl]methanone]
13 | 31.4 | Cc1c[nH]c2ncnc(C(=O)N3CCc4c(nn(C)c4-c4cc(F)c(F)c(F)c4)[C@@H]3C)c12 [Example 464, [(7S)-2,7-Dimethyl-3-(3,4,5-trifluorophenyl)-5,7-dihydro-4H-pyrazolo[3,4-c]pyridin-6-yl]-(5-methyl-7H-pyrrolo[2,3-d]pyrimidin-4-yl)methanone]
14 | 8.46 | Cc1cc(F)cc(-c2c3c(nn2C)[C@H](C)N(C(=O)c2ncnc4c2ccn4C)CC3)c1 [Example 465, [(7S)-3-(3-Fluoro-5-methyl-phenyl)-2,7-dimethyl-5,7-dihydro-4H-pyrazolo[3,4-c]pyridin-6-yl]-(7-methylpyrrolo[2,3-d]pyrimidin-4-yl) methanone]
15 | 5.86 | C[C@H]1c2nn(C)c(-c3cc(F)c(F)c(F)c3)c2CCN1C(=O)c1ncnc2c1ccn2C [Example 466, [(7S)-2,7-Dimethyl-3-(3,4,5-trifluorophenyl)-5,7-dihydro-4H-pyrazolo[3,4-c]pyridin-6-yl]-(7-methylpyrrolo[2,3-d]pyrimidin-4-yl)methanone]
16 | 36.1 | Cc1cn(C)c2ncnc(C(=O)N3CCc4c(nn(C)c4-c4cc(F)c(F)c(F)c4)[C@@H]3C)c12 [Example 467, (5,7-Dimethylpyrrolo[2,3-d]pyrimidin-4-yl)-[(7S)-2,7-dimethyl-3-(3,4,5-trifluorophenyl)-5,7-dihydro-4H-pyrazolo[3,4-c]pyridin-6-yl] methanone]
17 | 50.7 | C[C@H]1c2nn(C)c(-c3cccc(C(F)(F)F)c3)c2CCN1C(=O)c1ccc2ncccc2c1 [Example 468, [(7S)-2,7-Dimethyl-3-[3-(trifluoromethyl)phenyl]-5,7-dihydro-4H-pyrazolo[3,4-c]pyridin-6-yl]-(6-quinolyl)methanone]
18 | 36.4 | Cc1cc2c(C(=O)N3CCc4c(nn(C)c4-c4cc(F)c(F)c(F)c4)[C@@H]3C)ncnc2n1C [Example 469, (6,7-Dimethylpyrrolo[2,3-d]pyrimidin-4-yl)-[(7S)-2,7-dimethyl-3-(3,4,5-trifluorophenyl)-5,7-dihydro-4H-pyrazolo[3,4-c]pyridin-6-yl]methanone]
19 | 3350 | C[C@H]1c2nn(C)c(-c3cc(F)c(F)c(F)c3)c2CCN1C(=O)c1ncnc2nc[nH]c12 [Example 470, [(7S)-2,7-Dimethyl-3-(3,4,5-trifluorophenyl)-5,7-dihydro-4H-pyrazolo[3,4-c]pyridin-6-yl]-(7H-purin-6-yl)methanone]
20 | 32.5 | C[C@H]1c2nn(C)c(-c3cc(F)c(F)c(F)c3)c2CCN1C(=O)c1ncnc2c1cnn2C [Example 471, [(7S)-2,7-Dimethyl-3-(3,4,5-trifluorophenyl)-5,7-dihydro-4H-pyrazolo[3,4-c]pyridin-6-yl]-(1-methylpyrazolo[3,4-d]pyrimidin-4-yl)methanone]
21 | 1560 | Cc1cc(C(=O)N2CCc3c(nn(C)c3-c3cc(F)c(F)c(F)c3)[C@@H]2C)n2ncnc2n1 [Example 472, [(7S)-2,7-Dimethyl-3-(3,4,5-trifluorophenyl)-5,7-dihydro-4H-pyrazolo[3,4-c]pyridin-6-yl]-(5-methyl-[1,2,4]triazolo[1,5-a]pyrimidin-7-yl)methanone]
22 | 30.7 | Cc1cc2nccnc2cc1C(=O)N1CCc2c(nn(C)c2-c2cc(F)c(F)c(F)c2)[C@@H]1C [Example 473, [(7S)-2,7-Dimethyl-3-(3,4,5-trifluorophenyl)-5,7-dihydro-4H-pyrazolo[3,4-c]pyridin-6-yl]-(7-methylquinoxalin-6-yl) methanone]
23 | 85.3 | Cc1cnc2c(C(=O)N3CCc4c(nn(C)c4-c4cc(F)c(F)c(F)c4)[C@@H]3C)cccc2n1 [Example 474, [(7S)-2,7-Dimethyl-3-(3,4,5-trifluorophenyl)-5,7-dihydro-4H-pyrazolo[3,4-c]pyridin-6-yl]-(2-methylquinoxalin-5-yl)methanone]
24 | 73.6 | Cc1cnc2cccc(C(=O)N3CCc4c(nn(C)c4-c4cc(F)c(F)c(F)c4)[C@@H]3C)c2n1 [Example 475, [(7S)-2,7-Dimethyl-3-(3,4,5-trifluorophenyl)-5,7-dihydro-4H-pyrazolo[3,4-c]pyridin-6-yl]-(3-methylquinoxalin-5-yl)methanone]
25 | 25.4 | Cc1nc2ccc(C(=O)N3CCc4c(nn(C)c4-c4cc(F)c(F)c(F)c4)[C@@H]3C)cc2nc1C [Example 476, (2,3-Dimethylquinoxalin-6-yl)-[(7S)-2,7-dimethyl-3-(3,4,5-trifluorophenyl)-5,7-dihydro-4H-pyrazolo[3,4-c]pyridin-6-yl]methanone]
26 | 126 | C[C@H]1c2nn(C)c(-c3cc(F)c(F)c(F)c3)c2CCN1C(=O)c1cnc2ccccc2n1 [Example 477, [(7S)-2,7-Dimethyl-3-(3,4,5-trifluorophenyl)-5,7-dihydro-4H-pyrazolo[3,4-c]pyridin-6-yl]-quinoxalin-2-yl-methanone]
27 | 112 | C[C@H]1c2nn(C)c(-c3cc(F)c(F)c(F)c3)c2CCN1C(=O)c1cc2ccccc2nn1 [Example 478, Cinnolin-3-yl-[(7S)-2,7-dimethyl-3-(3,4,5-trifluorophenyl)-5,7-dihydro-4H-pyrazolo[3,4-c]pyridin-6-yl]methanone]
28 | 189 | C[C@H]1c2nn(C)c(-c3cc(F)c(F)c(F)c3)c2CCN1C(=O)c1ccc2ncncc2c1 [Example 479, [(7S)-2,7-Dimethyl-3-(3,4,5-trifluorophenyl)-5,7-dihydro-4H-pyrazolo[3,4-c]pyridin-6-yl]-quinazolin-6-yl-methanone]

Source: patent US11820766B2, “Monoacylglycerol lipase modulators” (Janssen Pharmaceutica NV, priority 2018, dated 2023)
